The structures appear in SMILES notation. ± gives the expanded uncertainty stated by the source.

This data set can be described thus: activity coefficient (dimensionless); of the first substance listed, at infinite dilution; xn = mol fraction of the nth substance listed. The conditions noted are these: 101 kPa, Liquid, Chromatography, x1 = 0.

With `CCO` [ethanol] + CCCC[n+]1cccc(C)c1.O=S(=O)([O-])C(F)(F)F, the activity coefficient is, setting by setting: (318.15 K) 0.907 ± 0.058; (328.15 K) 0.867 ± 0.055; (338.15 K) 0.827 ± 0.053; (348.15 K) 0.79 ± 0.051; (358.15 K) 0.759 ± 0.05.
For the compound `CCCCCCCCC` [nonane] + CCCC[n+]1cccc(C)c1.O=S(=O)([O-])C(F)(F)F, the activity coefficient worked out at 71.7 ± 4.9 (308.15 K); 65.9 ± 4.5 (318.15 K); 61.1 ± 4.2 (328.15 K); 56.8 ± 3.9 (338.15 K); 53.2 ± 3.6 (348.15 K); 49.9 ± 3.4 (358.15 K).
As for `CCCCCCCCCC` [decane] + CCCC[n+]1cccc(C)c1.O=S(=O)([O-])C(F)(F)F, the activity coefficient is 104 ± 7.2 (308.15 K); 94.9 ± 6.5 (318.15 K); 87.6 ± 6 (328.15 K); 80.2 ± 5.5 (338.15 K); 74.6 ± 5.1 (348.15 K); 69.5 ± 4.8 (358.15 K).
Consider `Cc1ccccc1C` [1,2-dimethylbenzene] + CCCC[n+]1cccc(C)c1.O=S(=O)([O-])C(F)(F)F, for which the activity coefficient is, setting by setting: (318.15 K) 2.16 ± 0.15; (328.15 K) 2.2 ± 0.15; (338.15 K) 2.25 ± 0.15; (348.15 K) 2.29 ± 0.16; (358.15 K) 2.33 ± 0.16.
On to `C=CCCC` [1-pentene] + CCCC[n+]1cccc(C)c1.O=S(=O)([O-])C(F)(F)F, for which the activity coefficient (308.15 K) was 8.67 ± 0.59; the activity coefficient (318.15 K) is 8.44 ± 0.58; the activity coefficient (328.15 K) stood at 8.23 ± 0.56; the activity coefficient (338.15 K) worked out at 8.03 ± 0.55; the activity coefficient (348.15 K) was determined as 7.88 ± 0.54; the activity coefficient (358.15 K) turned out to be 7.73 ± 0.53.
For `CCCO` [propan-1-ol] + CCCC[n+]1cccc(C)c1.O=S(=O)([O-])C(F)(F)F, the activity coefficient is, setting by setting: (318.15 K) 1.11 ± 0.07; (328.15 K) 1.06 ± 0.07; (338.15 K) 1 ± 0.06; (348.15 K) 0.958 ± 0.06; (358.15 K) 0.919 ± 0.058.
In the case of `C=CCCCCCC` [oct-1-ene] + CCCC[n+]1cccc(C)c1.O=S(=O)([O-])C(F)(F)F, the activity coefficient (308.15 K) was 24.3 ± 1.7; the activity coefficient (318.15 K) stood at 23.2 ± 1.6; the activity coefficient (328.15 K) came to 22.3 ± 1.5; the activity coefficient (338.15 K) worked out at 21.5 ± 1.5; the activity coefficient (348.15 K) was determined as 20.8 ± 1.4; the activity coefficient (358.15 K) turned out to be 20 ± 1.4.
For `C1CCCCCCC1` [cyclooctane] + CCCC[n+]1cccc(C)c1.O=S(=O)([O-])C(F)(F)F, the activity coefficient (318.15 K) was 19.8 ± 1.4; the activity coefficient (328.15 K) amounted to 18.6 ± 1.3; the activity coefficient (338.15 K) is 17.5 ± 1.2; the activity coefficient (348.15 K) was 16.5 ± 1.1; the activity coefficient (358.15 K) is 15.7 ± 1.1.

The values are drawn from the NIST ThermoML archive (doi:10.1021/je1000582).
